Results: ChEMBL document CHEMBL1765002, “Inhibitors of the oncogenic transcription factor AP-1 from Podocarpus latifolius” (J Nat Prod, 2011)
pIC50: −log10 of the molar value.

Molecular target: Transcription factor Jun (Homo sapiens, UniProt P05412)
Test: Inhibition of TPA-induced AP-1 activation in cells expressing beta-lactamase after 18 hrs using FRET substrate by cell-based high-throughput screening assay

Sequence of Transcription factor Jun (P05412 whole entry): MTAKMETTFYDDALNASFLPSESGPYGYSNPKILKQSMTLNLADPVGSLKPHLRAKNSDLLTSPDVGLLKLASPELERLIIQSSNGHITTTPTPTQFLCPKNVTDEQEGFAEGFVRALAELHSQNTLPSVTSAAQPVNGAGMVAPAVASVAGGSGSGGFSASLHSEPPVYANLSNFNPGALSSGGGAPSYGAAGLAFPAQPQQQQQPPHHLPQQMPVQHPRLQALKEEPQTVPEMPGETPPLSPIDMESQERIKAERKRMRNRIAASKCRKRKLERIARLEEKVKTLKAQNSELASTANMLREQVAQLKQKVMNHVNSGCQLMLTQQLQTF

SMILES | pIC50
CC(C)[C@H]1OC(=O)C=C2[C@]3(C)[C@H]4[C@H](OC(=O)[C@@]4(C)[C@@H](O)[C@H]4O[C@H]43)[C@H]3O[C@]213 [INUMAKILACTONE] | 5.40
CC(C)[C@H]1OC(=O)C=C2C1=C[C@H]1OC(=O)[C@@]3(C)CCC[C@@]2(C)[C@@H]13 [NAGILACTONE F] | 5.82
